Experimental data as given in the supplement of paper PMC10307832.

Experiments:
Test in all cases: relative viability (nuclei count vs DMSO), 5 days (fraction); higher = more cells survive
[1] = compound: C1=CC2=C(C=CC(=C2)C=C3C(=O)NC(=NCC4=CC=CS4)S3)N=C1 [RO-3306] + C[C@@H](Oc1cc(-c2cnn(C3CCNCC3)c2)cnc1N)c1c(Cl)ccc(F)c1Cl [Crizotinib] (partner 1 µM)
Procedure, shortened: (§1)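 Each reported value is a median over duplicate plates. It expresses relative viability: treated-well nuclei count divided by vehicle-well nuclei count. Lung cancer cell lines in 1536-well plates were dosed by pin tool a day after seeding, alone with one drug or with a fixed anchor-drug dose plus five library-drug doses (not always all listed) in √10 steps, and nuclei were counted after 5 days.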

[2] = compound: C1=CC2=C(C=CC(=C2)C=C3C(=O)NC(=NCC4=CC=CS4)S3)N=C1 [RO-3306] + Nc1ncn([C@H]2C[C@H](O)[C@@H](CO)O2)c(=O)n1 [Decitabine] (partner 2 µM)
Procedure, shortened: as §1

[3] = compound: O=S(=O)(c1ccccc1)N(CC(F)(F)F)c1ccc(C(O)(C(F)(F)F)C(F)(F)F)cc1 + COc1cccc2cc(-c3nc([C@H]4CC[C@H](C(=O)O)CC4)n4ncnc(N)c34)[nH]c12 [OSI-027] (partner 0.5 µM)
Procedure, shortened: as §1

[4] = compound: O=S(=O)(c1ccccc1)N(CC(F)(F)F)c1ccc(C(O)(C(F)(F)F)C(F)(F)F)cc1 + Cc1nc(Nc2ncc(C(=O)Nc3c(C)cccc3Cl)s2)cc(N2CCN(CCO)CC2)n1 [Dasatinib] (partner 0.075 µM)
Procedure, shortened: as §1

Row | Cell Line | relative viability ([1]; first compound 0.01 µM) | relative viability ([1]; first compound 0.03162 µM) | relative viability ([1]; first compound 0.1 µM) | relative viability ([1]; first compound 0.3162 µM) | relative viability ([1]; first compound 1 µM) | relative viability ([2]; first compound 0.01 µM) | relative viability ([2]; first compound 0.03162 µM) | relative viability ([2]; first compound 0.1 µM) | relative viability ([2]; first compound 0.3162 µM) | relative viability ([2]; first compound 1 µM) | relative viability ([3]; first compound 0.8 µM) | relative viability ([3]; first compound 2.53 µM) | relative viability ([3]; first compound 8 µM) | relative viability ([4]; first compound 0.8 µM) | relative viability ([4]; first compound 2.53 µM) | relative viability ([4]; first compound 8 µM)
1 | LU99A | 0.644 | 0.556 | 0.576 | 0.579 | 0.568 | 1.21 | 0.702 | 0.915 | 0.926 | 1 | 0.302 | 0.296 | 0.302 | 0.652 | 0.603 | 0.629
2 | LXF-289 | 0.846 | 0.817 | 0.808 | 0.726 | 0.76 | 0.377 | 0.36 | 0.387 | 0.333 | 0.424 | 0.877 | 0.64 | 0.749 | 0.163 | 0.141 | 0.153
3 | NCI-H522 | – | – | – | – | – | 0.736 | 0.544 | 0.712 | 0.775 | 0.638 | 0.615 | 0.754 | 0.903 | 0.821 | 0.904 | 1.07
4 | NCI-H1299 | 1.02 | 0.943 | 0.998 | 0.988 | 0.991 | – | – | – | – | – | – | – | – | – | – | –
5 | NCI-H1395 | – | – | – | – | – | 0.663 | 0.699 | 0.656 | 0.68 | 0.724 | 0.512 | 0.57 | 0.579 | 0.321 | 0.375 | 0.414
6 | NCI-H1563 | 0.866 | 0.849 | 0.894 | 0.873 | 0.918 | – | – | – | – | – | 0.792 | 0.734 | 0.854 | 0.402 | 0.427 | 0.435
7 | NCI-H1623 | – | – | – | – | – | – | – | – | – | – | 0.469 | 0.389 | 0.484 | 0.528 | 0.51 | 0.493
8 | NCI-H1648 | – | – | – | – | – | 0.545 | – | 0.357 | 0.47 | 0.472 | 0.248 | 0.254 | 0.185 | – | – | –
9 | NCI-H1703 | 0.951 | 0.418 | 0.719 | 0.91 | 0.568 | – | – | – | – | – | – | – | – | – | – | –
10 | NCI-H1793 | – | – | – | – | – | 0.415 | – | 0.403 | 0.49 | 0.493 | 0.292 | 0.188 | 0.207 | 0.375 | 0.335 | 0.347
11 | NCI-H2228 | 0.471 | 0.335 | 0.408 | 0.445 | 0.541 | – | – | – | – | – | 0.542 | 0.348 | 0.521 | 0.415 | 0.401 | 0.363
12 | NCI-H2342 | – | – | – | – | – | 0.746 | 0.654 | 0.755 | 0.773 | 0.673 | 0.646 | 0.626 | 0.58 | 0.286 | 0.31 | 0.326
13 | SW 900 | – | – | – | – | – | 0.45 | 0.425 | 0.42 | 0.404 | 0.549 | 0.52 | 0.519 | 0.591 | 0.625 | 0.563 | 0.478
